According to US5482954A, “Signal transduction inhibitor triazole and diazole compounds” (priority 1994, dated 1996):
Read-outs that look alike come from different tables or passages of the source.

Legend:
A2058 cells [1] = assay: Proliferation of A2058 cells (monolayer growth, crystal violet); assay type: cell-based, human; conditions: for activity at 10 µM: Homo sapiens, read-out: GROWTH (% OF CONTROL)
Procedure: For the clonogenic assay, aliquots of 50,000 cells per well (24 well plates) were grown under standard tissue culture conditions in the presence of increasing doses or test compound (0-10 μg/mL) or vehicle control. After 96 hr, the cells were gently washed with PBS, fixed, and stained with 0.5% crystal violet nuclear stain in 20% methanol. Excess stain was removed with tap water and bound stain was eluted with an equal volume solution of 01N sodium citrate (pH 4.2) and absolute ethanol. Optical density (O.D.) of eluted crystal violet stain was determined at 540 nm. The results of dose-dependent inhibition of tumor cell proliferation by compound 1 are shown in FIG. 5, in which the data are expressed as percent of untreated control cell proliferation for each cell type. The degree of inhibition varied with the cell type and was maximal (76%) for the A2058 cell line.
A2058 human melanoma cells were used to test the effect of compounds 1 and 3-25 on cellular proliferation. The cells were cultured in the presence of the test compounds (10 μM) for 96 hr. fixed and stained with crystal violet as described above. Growth inhibition was determined as a percent of control growth (using either DMSO or PEG-400 as the vehicle) for each compound. Each experiment was run a minimum of three times and the average of the results for each compound is provided in Table H and in FIGS. 20A and 20B.

A2058 cells [2] = assay: Colony formation (soft agar); assay type: cell-based, human; conditions: for COLONY FORMATION (% OF CONTROL): Table H, soft agar; for Colony Formation (% of Control): Table K
Procedure: Colony formation: Compound 1 was evaluated at three concentrations for inhibition of colony formation in both the A2058 and OVCAR3 cell lines. Colony number was determined in triplicate and compared to the vehicle control run on each 24 well plate to provide a percent. Colonies greater than 60 cells were counted at 100× under phase contrast. […] In a second study, selected compounds were evaluated for their effect on density-independent growth of the A2058 cell line in soft agar. Percent inhibition was determined over triplicate experiments involving three log molar concentrations of the test compound.

CHOm5 cells [3] = assay: Carbachol-stimulated arachidonic acid release; assay type: cell-based, Chinese hamster; conditions: Table K
Description: This example illustrates the effect of selected compounds on the release of arachidonic acid from carbachol-stimulated CHOm5 cells. Carbachol is a muscarinic agonist which in the muscarinic receptor transfected CHO cells stimulates the activation of phospholipase A2, resulting in arachidonic acid release and metabolism. Downstream metabolites of arachidonic acid, prostaglandins and leukotrienes are also second messengers.
The effect of compound 1 on arachidonic acid release from CHOm5 cells was determined by incubating the cells to isotopic equilibrium with labelled arachidonic acid, then washing the cells twice with 1 mL of serum-free media supplemented with 20 mM HEPES and 0.2% bovine serum albumin (fatty acid free) to trap the unincorporated labelled arachidonic acid, and then simultaneously adding carbachol (100 μM) and increasing concentrations of 1. After 15 min, the reaction was stopped by removing the incubation media which was then centrifuged at 10,000×g to eliminate any nonadherent cells.

CHOm5 cells [4] = assay: Carbachol-stimulated 45Ca2+ influx; assay type: cell-based, Chinese hamster; set-up: % Inhibition of 45Ca2+ Influx into CHOm5 Cells: concentration or dose not given beside the values; conditions: Table I; carbachol-stimulated
Procedure: Calcium influx was determined using two methods. The first method involved the use of ^45 Ca^2+, while the second method utilized a fluorescent intracellular calcium chelator, Fura-2. The method using Fura-2 is semi-quantitative and is preferred for kinetic analysis and screening whereas the ^45 Ca^2+ method is quantitative.
CHOm5 cells in monolayer culture were washed free of serum-containing media and incubated with either carbachol or the calcium ionophore A23187 (from Molecular Probes, Eugene, Oreg., USA) in the presence of ^45 Ca^2+ and defined buffer (E2 medium with 0.1 mM MgCl2 and 1.0 mM CaCl2). After incubation for 5 min, the radioactive buffer was rapidly and repeatedly washed off with media containing LaCl3, a competitor of calcium efflux. The cell monolayer was solubilized and the calcium uptake was determined by scintillation counting.
Stimulated uptake of radiolabelled calcium was measured as described above. The abbreviations CTL and CC are control and carbachol-stimulated calcium influx values. respectively.

Row | Compound | activity at 10 µM (A2058 cells [1]; A2058, Table H, 10 μM, 96 hr) | COLONY FORMATION (% OF CONTROL) (A2058 cells [2]) | also measured
1 | NC(=O)c1nnn(Cc2cc(Cl)c(C(=O)c3ccc(Cl)cc3)c(Cl)c2)c1NC(=O)c1ccccc1 [Compound 5] | 39 ± 2% | 9.97 ± 1 % OF CONTROL | Colony Formation (% of Control) (A2058 cells [2]): 9.97 ± 1 % of Control; Arachidonic Acid Release (% of Control) (CHOm5 cells [3]): 49.2 ± 12 % of Control; % Inhibition of 45Ca2+ Influx into CHOm5 Cells (CHOm5 cells [4]): 61%
2 | NC(=O)c1nnn(Cc2cc(F)cc(F)c2)c1N [Compound 16] | 111 ± 8% | – | –
3 | O=C(c1ccc(F)cc1)c1ccccc1Cl [Compound 23] | 101 ± 0.5% | 97.8 ± 5 % OF CONTROL | –
4 | NC(=O)c1nnn(Cc2cccc(Br)c2)c1N [Compound 13] | 85.5 ± 13% | – | –
5 | NC(=O)c1nnn(Cc2cc(Cl)cc(Cl)c2)c1N [Compound 15] | – | – | % Inhibition of 45Ca2+ Influx into CHOm5 Cells (CHOm5 cells [4]): 0%
6 | O=C(c1ccc(Cl)cc1)c1c(Cl)cc(Cn2ccnc2)cc1Cl [Compound 7] | 66.5 ± 9% | – | Arachidonic Acid Release (% of Control) (CHOm5 cells [3]): 92.6 ± 7 % of Control
7 | O=C(c1ccccc1)c1ccccc1 [Compound 17] | – | 95.9 ± 3 % OF CONTROL | activity at 10 µM (A2058 cells [1]; A2058, 96 h): 98.5 ± 5%
8 | NC(=O)c1nnn(Cc2cccc(I)c2)c1N [Compound 14] | 89 ± 6% | – | –
9 | NC(=O)c1nnn(Cc2cc(Cl)c(C(=O)c3ccc(Cl)cc3)c(Cl)c2)c1NC=O [Compound 3] | 31.5 ± 7% | 10.2 ± 0.5 % OF CONTROL | dose dependent inhibition of proliferation (A2058 cells [1]; FIG. 20A, monolayer growth): Dose dependent inhibition of proliferation; Colony Formation (% of Control) (A2058 cells [2]): 10.2 ± 0.5 % of Control; Arachidonic Acid Release (% of Control) (CHOm5 cells [3]): 13.1 ± 3 % of Control; % Inhibition of 45Ca2+ Influx into CHOm5 Cells (CHOm5 cells [4]): 60%
10 | O=C(O)c1nn[nH]c1C(=O)O [Compound 10] | 92.2 ± 4% | 100 ± 3 % OF CONTROL | –
11 | O=C(c1ccc(Cl)cc1)c1c(Cl)cc(CO)cc1Cl [Compound 26] | 101 ± 11% | 100.3 ± 1.2 % OF CONTROL | % Inhibition of 45Ca2+ Influx into CHOm5 Cells (CHOm5 cells [4]): ~ 10%
12 | O=C(c1ccccc1O)c1ccccc1O [Compound 25] | 98 ± 7% | 95.3 ± 2 % OF CONTROL | –
13 | Nc1c(C(=O)O)nnn1Cc1cc(Cl)c(C(=O)c2ccc(Cl)cc2)c(Cl)c1 [Compound 6] | 45.3 ± 11% | 9.00 ± 1 % OF CONTROL | Colony Formation (% of Control) (A2058 cells [2]): 9.00 ± 1 % of Control; Arachidonic Acid Release (% of Control) (CHOm5 cells [3]): 49.6 ± 5 % of Control; % Inhibition of 45Ca2+ Influx into CHOm5 Cells (CHOm5 cells [4]): 38%
14 | NC(=O)c1nnn(Cc2cccc(F)c2)c1N [Compound 11] | 89 ± 3% | – | –
15 | O=C(c1ccccc1)c1ccc(F)cc1 [Compound 18] | 94 ± 2% | 93.0 ± 3.7 % OF CONTROL | –
16 | NC(=O)c1nc[nH]c1N [Compound 9] | 97 ± 3% | – | –
17 | NC(=O)c1nnn(Cc2cccc(Cl)c2)c1N [Compound 12] | 85 ± 2% | – | –
18 | CC(=O)Nc1c(C(N)=O)nnn1Cc1cc(Cl)c(C(=O)c2ccc(Cl)cc2)c(Cl)c1 [Compound 4] | 53.7 ± 15% | 10.3 ± 0.4 % OF CONTROL | Colony Formation (% of Control) (A2058 cells [2]): 10.3 ± 0.4 % of Control; Arachidonic Acid Release (% of Control) (CHOm5 cells [3]): 73.8 ± 5.9 % of Control; % Inhibition of 45Ca2+ Influx into CHOm5 Cells (CHOm5 cells [4]): 41%
19 | O=C(c1ccccc1)c1ccccc1Cl [Compound 21] | 123 ± 5% | 100 ± 5 % OF CONTROL | –
20 | O=C(c1ccccc1)c1ccc(Cl)cc1 [Compound 19] | 110 ± 12% | 94.3 ± 3.1 % OF CONTROL | –
21 | O=C(c1ccc(F)cc1)c1ccccc1F [Compound 24] | 82 ± 7% | – | –
22 | O=C(c1ccccc1)c1ccc(Br)cc1 [Compound 20] | 97 ± 24% | 95.0 ± 1.4 % OF CONTROL | –
